Test results: ChEMBL document CHEMBL1201862, “PubChem BioAssay data set” (2004)
Active and inactive are the calls of the source.

What was measured:
[1] = Luminescence Cell-Based Dose Confirmation to Identify Activators of 5'UTR Stem-Loop Driven Alpha-Synuclein mRNA Translation in H4 Neuroglioblastoma Cells. [Related pubchem assays: 1829 (Project Summary), 1814 (Primary HTS)]; type: functional
[2] = Luminescence Cell-Based Dose Response HTS to Identify Activators of Luciferase Translation or Activity in H4 […] Cells. [Related pubchem assays: 1829 (Project Summary), 1814 (Primary HTS)]; type: functional
[3] = Luminescence Cell-Based Dose Response to Identify Activators of Luciferase Translation or Activity in H4-C Neuroglioblastoma Cells. [Related pubchem assays: 1829 (Project Summary), 1814 (Primary HTS)]; type: functional
[4] = Luminescence Cell-Based Dose Response to Identify Activators of 5'UTR Stem-Loop Driven Prion Protein mRNA Translation in H4-C Neuroglioblastoma Cells. [Related pubchem assays: 1829 (Project Summary), 1814 (Primary HTS)]; type: functional
[5] = tested on: H4; test: Luminescence Cell-Based Dose Response HTS to Identify Activators of 5'UTR Stem-Loop Driven Prion Protein mRNA Translation in H4 Neuroglioblastoma Cells. [Related pubchem assays: 1829 (Project Summary), 1814 (Primary HTS)]; type: functional; conditions: Homo sapiens
[6] = biological target: Caspase-6 (Homo sapiens, UniProt P55212); test: human caspase-6 inhibitors, dose response, biochemical, VEID-R110 fluorescence, cherry-pick (AID 720632)
[7] = biological target: G-protein coupled receptor 183 (Homo sapiens, UniProt P32249); test: SAR confirmation of small molecule antagonists of the EBI2 receptor via a luminescent beta-arrestin assa.; type: functional
[8] = biological target: RNA-editing ligase 1, mitochondrial (Trypanosoma brucei brucei, UniProt P86926); test: TbREL1 ligase inhibitors, dose response, biochemical, fluorescence, Trypanosoma brucei (AID 1117295); type: functional
[9] = HepG2 cell cytotoxicity, dose response, cytotoxicity control, plate reader, cherry-pick, antagonist series (AID 743416); type: functional, cell-based
[10] = A549 cell cytotoxicity, dose response, cytotoxicity control, plate reader, cherry-pick, antagonist series (AID 743412); type: functional, cell-based
[11] = HEK293 cell cytotoxicity, dose response, cytotoxicity control, plate reader, cherry-picked samples (AID 743446); type: functional, cell-based
[12] = biological target: Kallikrein-7 (Homo sapiens, UniProt P49862); test: Fluorescence Intensity-based biochemical primary high throughput dose response assay to identify activators of kallikrein-7 (K7) zymogen.
[13] = biological target: Large T antigen (Simian virus 40, UniProt P03070); type: functional, Betapolyomavirus macacae;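 further: Confirmatory-stage PubChem screen for compounds that inhibit SV40 T antigen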
[14] = M. tuberculosis growth inhibition, HTS (AID 449762); type: functional
[15] = biological target: T1, RNA-binding protein pos-1 (Caenorhabditis elegans, UniProt G5EF15); test: inhibitors of POS-1/mex-3 RNA binding, dose response, biochemical, fluorescence polarization (AID 1964);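 further: purified POS-1 fused to maltose binding protein made in E. coli; potency of compounds blocking POS-1 binding to fluorescent RNA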
T1 sequence (G5EF15 whole entry): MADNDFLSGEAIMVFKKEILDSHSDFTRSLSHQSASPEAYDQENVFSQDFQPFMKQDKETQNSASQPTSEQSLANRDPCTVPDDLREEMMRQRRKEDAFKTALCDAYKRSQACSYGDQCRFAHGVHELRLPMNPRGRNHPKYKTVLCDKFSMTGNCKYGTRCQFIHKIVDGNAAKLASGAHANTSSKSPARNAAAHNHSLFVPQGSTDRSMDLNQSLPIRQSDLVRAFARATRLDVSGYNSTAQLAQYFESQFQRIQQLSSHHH

[16] = biological target: Genome polyprotein (dengue virus type 2, UniProt P29990); test: Dengue-2 NS5 methyltransferase inhibitors, primary screen, biochemical, confirmation dose response (AID 588689); type: functional
[17] = biological target: T2, Zinc finger protein mex-5 (Caenorhabditis elegans, UniProt Q9XUB2); test: MEX-5/TCR-2 RNA interaction inhibitors, dose response, biochemical, C. elegans, fluorescence polarization (AID 1960)
T2 sequence (Q9XUB2 whole entry): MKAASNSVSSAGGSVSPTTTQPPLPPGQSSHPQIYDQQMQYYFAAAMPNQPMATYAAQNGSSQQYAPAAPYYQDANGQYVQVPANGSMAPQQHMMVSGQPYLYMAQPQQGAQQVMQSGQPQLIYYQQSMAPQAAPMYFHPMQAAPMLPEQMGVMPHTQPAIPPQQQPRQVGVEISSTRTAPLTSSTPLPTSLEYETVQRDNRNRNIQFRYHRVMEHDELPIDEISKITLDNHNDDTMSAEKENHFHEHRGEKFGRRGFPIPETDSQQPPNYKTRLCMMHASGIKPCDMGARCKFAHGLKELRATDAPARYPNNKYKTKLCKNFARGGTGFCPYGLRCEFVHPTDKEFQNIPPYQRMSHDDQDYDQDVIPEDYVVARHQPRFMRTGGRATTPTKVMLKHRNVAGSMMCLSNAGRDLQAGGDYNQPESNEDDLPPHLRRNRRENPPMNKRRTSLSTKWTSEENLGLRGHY

[18] = biological target: Ras and Rab interactor 1/Tyrosine-protein kinase ABL1 (Homo sapiens, UniProt P00519+Q13671); type: functional;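 further: biochemical TR-FRET dose-response test measuring inhibition of binding between Rin1 and Abl proteins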
[19] = biological target: Induced myeloid leukemia cell differentiation protein Mcl-1 (Homo sapiens, UniProt Q07820); type: functional
[20] = biological target: Eukaryotic translation initiation factor 4E (Mus musculus, UniProt P63073); test: eIF4E–eIF4G protein interaction inhibitors, dose response, biochemical, TR-FRET (AID 855); type: functional;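 further: potency for disrupting eIF4E binding to eIF4GI seen as loss of FRET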
[21] = biological target: Bifunctional protein GlmU (Mycobacterium tuberculosis, UniProt P9WMN3); test: Inhibitors of Mycobacterial Glucosamine-1-phosphate acetyl transferase (GlmU). Secondary screen.; design: species or system Mycobacterium tuberculosis H37Rv
[22] = biological target: T3, Microphthalmia-associated transcription factor (Homo sapiens, UniProt O75030); test: TRPM1 promoter luciferase signal decrease, dose response, MITF inhibitor project, cell-based, SK-MEL-5, cherry-picked, set 3 (AID 493073); type: functional
T3 sequence (O75030 whole entry): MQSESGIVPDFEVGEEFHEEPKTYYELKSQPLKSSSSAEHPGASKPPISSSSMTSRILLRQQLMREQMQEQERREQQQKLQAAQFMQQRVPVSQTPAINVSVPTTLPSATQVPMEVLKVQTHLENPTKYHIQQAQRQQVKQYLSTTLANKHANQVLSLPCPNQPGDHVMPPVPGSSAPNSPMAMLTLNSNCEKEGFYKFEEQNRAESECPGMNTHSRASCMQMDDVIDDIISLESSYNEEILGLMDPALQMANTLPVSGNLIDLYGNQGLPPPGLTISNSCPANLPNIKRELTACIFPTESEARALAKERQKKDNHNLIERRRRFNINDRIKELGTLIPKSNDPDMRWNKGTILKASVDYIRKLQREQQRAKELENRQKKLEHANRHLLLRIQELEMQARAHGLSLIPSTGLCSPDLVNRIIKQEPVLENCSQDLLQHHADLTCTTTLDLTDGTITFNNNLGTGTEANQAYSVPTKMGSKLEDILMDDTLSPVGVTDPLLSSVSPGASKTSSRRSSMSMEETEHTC

[23] = biological target: Mitogen-activated protein kinase 10 (Homo sapiens, UniProt P53779); test: Dose response biochemical screening assay for inhibitors of c-Jun N-Terminal Kinase 3 (JNK3). [Related pubchem assays: 746 ]
[24] = biological target: Cytochrome P450 2C9 (Homo sapiens, UniProt P11712)
[25] = biological target: Ephrin type-A receptor 4 (Mus musculus, UniProt Q03137); test: inhibitors of EphA4 binding to KYL peptide, primary screen, biochemical, colorimetric, mouse EphA4 (AID 689); type: functional
[26] = biological target: Cytochrome P450 3A4 (Homo sapiens, UniProt P08684);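 further: CYP3A4 tested as one member of a cytochrome P450 panel screen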
[27] = biological target: T4, Cytochrome P450 1A2 (Homo sapiens, UniProt P05177);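 further: PubChem cytochrome P450 panel assay, CYP1A2 panel member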
T4 sequence (P05177 whole entry): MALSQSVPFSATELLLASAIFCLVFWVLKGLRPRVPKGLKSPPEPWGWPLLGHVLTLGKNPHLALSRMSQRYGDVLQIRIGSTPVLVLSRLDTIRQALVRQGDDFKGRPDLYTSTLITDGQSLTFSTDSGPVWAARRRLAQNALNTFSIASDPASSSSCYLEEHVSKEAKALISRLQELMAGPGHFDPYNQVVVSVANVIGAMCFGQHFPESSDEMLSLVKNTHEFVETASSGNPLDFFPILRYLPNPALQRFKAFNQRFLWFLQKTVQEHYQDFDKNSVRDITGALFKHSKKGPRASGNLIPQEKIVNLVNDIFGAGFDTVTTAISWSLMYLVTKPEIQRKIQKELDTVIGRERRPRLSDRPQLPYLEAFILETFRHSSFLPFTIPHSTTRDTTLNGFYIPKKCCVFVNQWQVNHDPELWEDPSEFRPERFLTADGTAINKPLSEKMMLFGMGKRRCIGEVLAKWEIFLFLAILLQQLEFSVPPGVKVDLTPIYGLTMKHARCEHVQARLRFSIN

[28] = Luminescence Cell-Based Dose Retest to Confirm Inhibitors of Cancer Stem Cells. [Related pubchem assays (depositor defined):AID2717, AID2721]; type: functional; conditions: Homo sapiens
[29] = inhibitors of intracellular T. cruzi replication, confirmation, NIH3T3 host cells, beta-gal luminescence (AID 2044); type: functional, cell-based;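 further: intracellular parasites grown in NIH/3T3 mouse fibroblasts as host cells; luminescent beta-galactosidase reporter signal from transgenic T. cruzi replicating inside host cells; inhibitors lower the luminescence signal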
[30] = biological target: T5, Heat shock factor protein 1 (Mus musculus, UniProt P38532); test: inhibition of MG132-induced HSE-luciferase signal, confirmation, cell-based, NIH3T3, luminescence, dose retest (AID 2382); type: functional;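 further: NIH3T3 fibroblasts with HSF1-driven luciferase reporter stressed by proteasome inhibitor MG132; luminescence from HSF1-driven luciferase expression after 8 hours of MG132 stress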
T5 sequence (P38532 whole entry): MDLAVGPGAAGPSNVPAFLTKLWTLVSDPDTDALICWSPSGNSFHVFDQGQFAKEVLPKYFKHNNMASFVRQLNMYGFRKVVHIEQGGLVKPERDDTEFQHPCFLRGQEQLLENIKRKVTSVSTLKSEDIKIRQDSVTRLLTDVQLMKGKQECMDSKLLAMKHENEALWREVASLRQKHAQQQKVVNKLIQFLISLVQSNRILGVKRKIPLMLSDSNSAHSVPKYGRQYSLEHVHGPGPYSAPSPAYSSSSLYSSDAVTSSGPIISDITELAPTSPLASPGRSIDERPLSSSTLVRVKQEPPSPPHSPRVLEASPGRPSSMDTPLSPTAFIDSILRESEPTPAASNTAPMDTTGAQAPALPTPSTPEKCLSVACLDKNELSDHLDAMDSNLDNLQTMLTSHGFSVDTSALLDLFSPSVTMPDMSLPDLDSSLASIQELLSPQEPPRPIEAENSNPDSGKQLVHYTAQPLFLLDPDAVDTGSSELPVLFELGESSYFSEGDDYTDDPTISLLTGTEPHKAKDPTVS

[31] = cytotoxicity toward NIH3T3 fibroblasts, dose response, counter-screen, cell-based, ATP luminescence, mouse fibroblasts (AID 2010); type: functional;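 further: cells exposed to compound for about 90 hours before reading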

Sequence of Ephrin type-A receptor 4 (Q03137 whole entry): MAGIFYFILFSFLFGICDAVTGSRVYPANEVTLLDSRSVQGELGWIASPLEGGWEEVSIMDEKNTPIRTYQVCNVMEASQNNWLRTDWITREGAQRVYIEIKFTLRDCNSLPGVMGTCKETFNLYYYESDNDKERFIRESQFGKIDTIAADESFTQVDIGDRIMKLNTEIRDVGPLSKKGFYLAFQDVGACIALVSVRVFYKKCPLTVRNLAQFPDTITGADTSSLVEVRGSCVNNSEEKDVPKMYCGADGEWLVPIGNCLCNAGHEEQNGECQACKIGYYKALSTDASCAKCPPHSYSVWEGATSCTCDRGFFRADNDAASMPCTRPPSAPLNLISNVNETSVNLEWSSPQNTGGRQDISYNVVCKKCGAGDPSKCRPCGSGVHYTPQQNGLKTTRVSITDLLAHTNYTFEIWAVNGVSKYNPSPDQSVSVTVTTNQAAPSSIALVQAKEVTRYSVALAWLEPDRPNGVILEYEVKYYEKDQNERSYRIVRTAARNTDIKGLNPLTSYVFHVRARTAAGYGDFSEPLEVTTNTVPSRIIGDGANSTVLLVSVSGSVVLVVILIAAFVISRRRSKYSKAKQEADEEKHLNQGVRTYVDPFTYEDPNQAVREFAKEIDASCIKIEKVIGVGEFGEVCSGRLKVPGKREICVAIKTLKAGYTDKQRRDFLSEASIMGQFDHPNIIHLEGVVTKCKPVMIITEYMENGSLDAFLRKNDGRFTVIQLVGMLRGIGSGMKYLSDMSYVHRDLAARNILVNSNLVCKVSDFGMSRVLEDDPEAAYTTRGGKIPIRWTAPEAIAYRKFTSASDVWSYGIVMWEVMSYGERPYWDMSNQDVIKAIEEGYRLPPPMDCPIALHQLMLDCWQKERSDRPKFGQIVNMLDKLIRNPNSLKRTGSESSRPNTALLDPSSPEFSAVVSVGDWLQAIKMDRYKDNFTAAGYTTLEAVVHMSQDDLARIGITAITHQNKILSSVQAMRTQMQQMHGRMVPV
Sequence of Kallikrein-7 (P49862 whole entry): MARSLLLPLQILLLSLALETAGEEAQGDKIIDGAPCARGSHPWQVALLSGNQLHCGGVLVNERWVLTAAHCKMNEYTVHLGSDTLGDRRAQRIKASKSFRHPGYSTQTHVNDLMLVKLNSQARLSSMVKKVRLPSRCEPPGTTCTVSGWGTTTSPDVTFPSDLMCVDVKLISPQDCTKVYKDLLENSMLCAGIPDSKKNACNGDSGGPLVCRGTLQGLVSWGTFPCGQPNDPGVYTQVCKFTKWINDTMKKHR
Sequence of Large T antigen (P03070 whole entry): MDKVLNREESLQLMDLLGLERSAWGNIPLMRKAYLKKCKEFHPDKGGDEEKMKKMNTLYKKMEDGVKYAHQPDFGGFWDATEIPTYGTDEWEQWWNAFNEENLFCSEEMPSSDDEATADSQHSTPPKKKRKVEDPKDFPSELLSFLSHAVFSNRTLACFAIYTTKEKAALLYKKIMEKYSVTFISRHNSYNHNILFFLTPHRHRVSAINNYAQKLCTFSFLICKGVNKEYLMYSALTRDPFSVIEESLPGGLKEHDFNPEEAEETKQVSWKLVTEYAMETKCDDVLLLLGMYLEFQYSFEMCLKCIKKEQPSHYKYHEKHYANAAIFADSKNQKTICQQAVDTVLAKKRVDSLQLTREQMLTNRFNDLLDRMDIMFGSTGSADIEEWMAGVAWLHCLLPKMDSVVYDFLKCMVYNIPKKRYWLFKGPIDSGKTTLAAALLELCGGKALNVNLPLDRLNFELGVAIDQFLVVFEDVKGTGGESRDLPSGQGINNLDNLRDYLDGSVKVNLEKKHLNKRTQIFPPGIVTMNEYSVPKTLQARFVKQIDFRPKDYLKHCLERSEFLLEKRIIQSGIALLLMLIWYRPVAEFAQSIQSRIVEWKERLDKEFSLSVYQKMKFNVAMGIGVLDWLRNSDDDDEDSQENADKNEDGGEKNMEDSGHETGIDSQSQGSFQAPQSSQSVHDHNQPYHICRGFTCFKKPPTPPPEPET
Sequence of Caspase-6 (P55212 24-179 limits assumed): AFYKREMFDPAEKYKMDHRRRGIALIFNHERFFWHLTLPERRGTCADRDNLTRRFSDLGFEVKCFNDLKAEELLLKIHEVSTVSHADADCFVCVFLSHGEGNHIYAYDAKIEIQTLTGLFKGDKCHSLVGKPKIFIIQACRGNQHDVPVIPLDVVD
Sequence of Caspase-6 (P55212 194-293 limits assumed): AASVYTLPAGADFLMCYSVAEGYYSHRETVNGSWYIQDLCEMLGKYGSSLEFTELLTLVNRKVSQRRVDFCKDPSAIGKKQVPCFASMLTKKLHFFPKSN
Sequence of Mitogen-activated protein kinase 10 (P53779 whole entry): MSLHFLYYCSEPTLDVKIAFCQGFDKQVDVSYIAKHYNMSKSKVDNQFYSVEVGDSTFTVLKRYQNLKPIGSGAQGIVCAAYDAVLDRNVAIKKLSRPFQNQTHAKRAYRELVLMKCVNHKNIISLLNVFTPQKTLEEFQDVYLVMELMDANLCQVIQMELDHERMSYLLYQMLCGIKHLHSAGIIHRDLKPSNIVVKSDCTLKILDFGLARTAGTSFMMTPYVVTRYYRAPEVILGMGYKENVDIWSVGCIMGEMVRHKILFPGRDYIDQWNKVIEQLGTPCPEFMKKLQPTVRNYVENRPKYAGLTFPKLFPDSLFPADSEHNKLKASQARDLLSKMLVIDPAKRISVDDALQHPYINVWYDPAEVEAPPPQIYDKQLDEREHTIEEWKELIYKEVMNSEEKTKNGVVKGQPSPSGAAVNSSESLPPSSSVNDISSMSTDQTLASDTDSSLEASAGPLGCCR
Sequence of G-protein coupled receptor 183 (P32249 whole entry): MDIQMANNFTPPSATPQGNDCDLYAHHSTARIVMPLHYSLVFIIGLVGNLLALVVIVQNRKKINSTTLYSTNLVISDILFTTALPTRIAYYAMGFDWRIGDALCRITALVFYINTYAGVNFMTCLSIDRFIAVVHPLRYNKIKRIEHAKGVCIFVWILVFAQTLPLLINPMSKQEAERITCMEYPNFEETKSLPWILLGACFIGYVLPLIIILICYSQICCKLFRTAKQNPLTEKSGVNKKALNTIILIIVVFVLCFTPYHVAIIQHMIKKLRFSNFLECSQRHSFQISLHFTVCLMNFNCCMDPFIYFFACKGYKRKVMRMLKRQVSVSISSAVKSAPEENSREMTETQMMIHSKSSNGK
Sequence of RNA-editing ligase 1, mitochondrial (P86926 whole entry): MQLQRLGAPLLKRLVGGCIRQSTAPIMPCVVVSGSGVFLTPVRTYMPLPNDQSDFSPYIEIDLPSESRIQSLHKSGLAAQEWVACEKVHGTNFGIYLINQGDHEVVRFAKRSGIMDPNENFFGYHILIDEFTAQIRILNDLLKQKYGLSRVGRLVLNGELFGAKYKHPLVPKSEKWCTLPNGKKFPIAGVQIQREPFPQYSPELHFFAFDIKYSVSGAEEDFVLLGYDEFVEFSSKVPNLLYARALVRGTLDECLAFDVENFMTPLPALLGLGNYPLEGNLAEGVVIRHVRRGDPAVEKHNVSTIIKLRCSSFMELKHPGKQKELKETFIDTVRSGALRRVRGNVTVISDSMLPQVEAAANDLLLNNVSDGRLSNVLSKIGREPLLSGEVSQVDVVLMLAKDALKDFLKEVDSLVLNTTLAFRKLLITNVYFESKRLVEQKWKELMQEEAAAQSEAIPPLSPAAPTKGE
Sequence of Cytochrome P450 3A4 (P08684 whole entry): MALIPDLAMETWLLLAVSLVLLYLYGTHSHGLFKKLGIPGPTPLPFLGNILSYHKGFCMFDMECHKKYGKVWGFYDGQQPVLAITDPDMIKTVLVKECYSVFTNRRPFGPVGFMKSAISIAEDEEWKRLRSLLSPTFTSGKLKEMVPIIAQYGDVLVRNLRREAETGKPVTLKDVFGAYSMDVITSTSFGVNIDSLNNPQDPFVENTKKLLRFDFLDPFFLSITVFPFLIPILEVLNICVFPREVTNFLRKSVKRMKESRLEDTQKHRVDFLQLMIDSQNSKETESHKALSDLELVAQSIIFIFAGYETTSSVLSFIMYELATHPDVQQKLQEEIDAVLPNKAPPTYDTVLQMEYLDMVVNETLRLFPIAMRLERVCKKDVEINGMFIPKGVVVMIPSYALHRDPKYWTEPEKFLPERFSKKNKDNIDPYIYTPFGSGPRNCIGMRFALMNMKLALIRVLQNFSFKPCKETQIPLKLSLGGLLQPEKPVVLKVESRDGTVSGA
Sequence of Eukaryotic translation initiation factor 4E (P63073 whole entry): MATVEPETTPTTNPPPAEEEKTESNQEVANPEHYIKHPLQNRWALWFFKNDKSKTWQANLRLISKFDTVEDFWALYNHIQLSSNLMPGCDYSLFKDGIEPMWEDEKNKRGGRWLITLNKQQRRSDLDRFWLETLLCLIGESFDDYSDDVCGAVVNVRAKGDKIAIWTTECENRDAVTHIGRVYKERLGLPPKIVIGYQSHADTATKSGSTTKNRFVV
Sequence of Induced myeloid leukemia cell differentiation protein Mcl-1 (Q07820 whole entry): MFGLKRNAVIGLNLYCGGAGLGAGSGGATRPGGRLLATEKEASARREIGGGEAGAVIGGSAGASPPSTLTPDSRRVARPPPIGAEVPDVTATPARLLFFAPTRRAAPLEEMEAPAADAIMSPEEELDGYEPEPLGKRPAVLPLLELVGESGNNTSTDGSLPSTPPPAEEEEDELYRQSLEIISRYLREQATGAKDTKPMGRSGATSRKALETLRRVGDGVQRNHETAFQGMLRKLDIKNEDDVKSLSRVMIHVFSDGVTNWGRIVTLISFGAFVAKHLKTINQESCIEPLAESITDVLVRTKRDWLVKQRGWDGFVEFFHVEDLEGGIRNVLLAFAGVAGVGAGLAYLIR

SMILES: O=c1cccccc1NN=C1CCCCCC1
- EC50 [1]: 0.446 µM (active)
- EC50 [2]: < 0.1 µM (active)
- EC50 [3]: 0.385 µM (active)
- EC50 [4]: 0.608 µM (active)
- EC50 [5]: > 120 µM (not active)

SMILES: Cc1nnc(N/N=C/c2cccc(C(F)(F)F)c2)n1N
- AC50 [6]: 34.8 µM (active)

SMILES: O=C(/C=C/c1ccc(F)cc1)N1CCN(S(=O)(=O)c2cccc(Br)c2)CC1
- IC50 [7]: 0.0175 µM (active)

SMILES: CC(C)C[C@H](NC1(C(=O)NC2CCCCC2)CCN(C)CC1)C(=O)NCC(c1ccccc1)c1ccccc1
- IC50 [8]: > 96.6 µM (inactive)

SMILES: COc1cccc(C#Cc2ccc([C@@H]3[C@@H](CO)N(C(=O)C4CCC4)[C@H]3C#N)cc2)c1
- AC50 [9]: 26.8 µM (active)
- AC50 [10]: 30.9 µM (active)
- AC50 [11]: 46.8 µM (active)

SMILES: O=C(O)CCC(=O)NN1C(=O)c2ccccc2NC1c1ccco1 (configuration not stated)
- EC50 [12]: > 69.5 µM (inactive)

SMILES: N#Cc1ccc(C(=O)N2CCN(C(=O)/C=C/c3ccc(Br)cc3)CC2)cc1
- IC50 [7]: 0.00174 µM (active)

SMILES: Nc1ccc2c(c1)Cc1ccccc1-2
- IC50 [13]: 3.52 µM (active)
- IC50 [14]: > 100 µM (active)

SMILES: Oc1ccc(/C=N/N2CCCCC2)c(O)c1O
- EC50 [15]: 20.3 µM (active)
- IC50 [16]: > 100 µM (active)
- EC50 [17]: > 300 µM (inconclusive)
- AC50 [6]: 24.2 µM (active)
- IC50 [18]: > 73.5 µM (inactive)

SMILES: O=C1C(=Cc2ccc(Br)o2)C(=O)c2ccccc21
- IC50 [19]: 1.92 µM (active)
- IC50 [20]: 20.1 µM (active)
- IC50 [13]: 93.7 µM (active)
- IC50 [21]: 18.5 µM (active)

SMILES: O=C(Cn1ncc(Cl)c(Cl)c1=O)N1CCOCC1
- AC50 [9]: 34.4 µM (active)
- AC50 [22]: 9.82 µM (active)
- AC50 [10]: 38 µM (active)
- AC50 [11]: 13.7 µM (active)

SMILES: Nc1nc(-c2ccccc2)cc(-c2ccccc2O)n1
- IC50 [23]: 40.6 µM (not active)
- AC50 [24]: 3.55 µM (inconclusive)

SMILES: COc1cc(/C=C2\SC(=S)N(Nc3ccccc3)C2=O)cc(OC)c1OC
- IC50 [25]: 2.64 µM (active)
- AC50 [26]: 15.8 µM (inconclusive)
- AC50 [27]: 7.08 µM (inconclusive)

SMILES: CC(=O)Nc1ccc(NC2=Nc3ccccc3N3C2=Nc2c(c(C)nn2-c2ccccc2)C3c2ccccc2)cc1 (configuration not stated)
- IC50 [25]: 16.6 µM (active)

SMILES: CCCCCCSc1nsc(NC(=O)CC(C)C)n1
- AC50 [28]: 2.02 µM (active)
- IC50 [14]: > 100 µM (active)

SMILES: COC(=O)C1=C(C)N(Cc2ccccc2C(F)(F)F)C(NCc2ccc3c(c2)OCO3)=NC1c1ccccc1 (configuration not stated)
- IC50 [8]: > 96.6 µM (inactive)

SMILES: N#Cc1c(N)nc(SCc2ccncc2)c(C#N)c1-c1cccs1
- EC50 [29]: 0.145 µM (active)
- EC50 [15]: > 300 µM (not active)
- IC50 [23]: 54.8 µM (not active)
- EC50 [30]: > 195 µM (not active)
- EC50 [17]: > 300 µM (not active)
- EC50 [31]: 17.1 µM (active)

SMILES: Cc1ccccc1NC(=O)COC(=O)COc1ccc2ccc(=O)oc2c1
- EC50 [12]: 31.9 µM (inactive)

SMILES: O=C(Nc1ccc(Cl)cc1)c1ccc(OCC2CCCO2)cc1 (configuration not stated)
- EC50 [1]: > 12 µM (not active)
- EC50 [3]: 0.301 µM (active)
- EC50 [4]: 0.924 µM (active)
